Results from US11612606B2, “8-aminoisoquinoline compounds and uses thereof” (priority 2018, dated 2023).
Counter-ions that a name gives are not always drawn. Like-named read-outs stand apart in the source and are kept apart here.

Target: HPK full length, T165E S171E (Homo sapiens (Human), UniProt Q92918, S171E/T165E)
Test: HPK1-FL HTRF enzymatic assay ("HTRF")
Format: biochemical
Conditions: ATP 1 mM
In short: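 Full-length HPK1 (T165E/S171E) was preincubated 30 min with compound, then reacted 60 min with biotin-SLP-76 and 1 mM ATP. Phospho-SLP-76 was detected by HTRF (Eu-anti-pSLP76 antibody, SA-XL665) after a further 60 min.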

Chain of HPK full length, T165E S171E (Q92918 whole entry T165E/S171E, looked up): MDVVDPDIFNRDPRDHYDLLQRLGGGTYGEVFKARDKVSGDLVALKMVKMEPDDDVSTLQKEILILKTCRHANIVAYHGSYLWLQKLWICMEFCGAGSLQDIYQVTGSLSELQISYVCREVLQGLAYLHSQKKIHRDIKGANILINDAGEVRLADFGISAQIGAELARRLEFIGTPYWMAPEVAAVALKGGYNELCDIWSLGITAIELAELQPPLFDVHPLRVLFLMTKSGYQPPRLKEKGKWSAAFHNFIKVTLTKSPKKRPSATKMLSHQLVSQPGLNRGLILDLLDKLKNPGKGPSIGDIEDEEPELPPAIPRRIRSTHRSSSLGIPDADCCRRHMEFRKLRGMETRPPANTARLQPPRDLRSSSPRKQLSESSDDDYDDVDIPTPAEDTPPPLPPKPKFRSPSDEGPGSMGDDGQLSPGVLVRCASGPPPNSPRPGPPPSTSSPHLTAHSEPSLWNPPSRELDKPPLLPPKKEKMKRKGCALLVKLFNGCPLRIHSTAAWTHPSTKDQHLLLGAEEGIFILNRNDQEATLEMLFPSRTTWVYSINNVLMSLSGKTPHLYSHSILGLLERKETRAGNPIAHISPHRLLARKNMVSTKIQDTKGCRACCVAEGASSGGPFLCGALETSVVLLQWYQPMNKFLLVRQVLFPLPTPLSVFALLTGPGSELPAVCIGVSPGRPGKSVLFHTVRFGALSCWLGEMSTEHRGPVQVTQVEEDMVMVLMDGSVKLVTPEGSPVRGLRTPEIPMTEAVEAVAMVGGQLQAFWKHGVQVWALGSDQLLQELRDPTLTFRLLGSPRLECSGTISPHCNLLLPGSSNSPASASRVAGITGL

Compound: Cc1c(-c2cc3cc(NC(=O)O[C@@H]4CCOC4)ncc3c(N)c2F)cnc2c1[C@H](O)CC2 [Compound 548b, (R)-tetrahydrofuran-3-yl (8-amino-7-fluoro-6-((R)-5-hydroxy-4-methyl-6,7-dihydro-5H-cyclopenta[b]pyridin-3-yl)isoquinolin-3-yl)carbamate]
- Ki (read-out: HPK1 Ki): 93 nM

Compound: Cc1c(-c2cc3cc(NC(=O)O[C@H]4C[C@@H](C(C)(C)C#N)C4)ncc3c(N)c2F)cnc2c1NCCO2 [Compound 549a, (1s,3s)-3-(2-Cyanopropan-2-yl)cyclobutyl (8-amino-7-fluoro-6-(8-methyl-2,3-dihydro-1H-pyrido[2,3-b][1,4]oxazin-7-yl)isoquinolin-3-yl)carbamate]
- Ki (read-out: HPK1 Ki): < 0.013 nM

Compound: Cc1c(-c2cc3cc(NC(=O)O[C@H]4C[C@H](C(C)(C)C#N)C4)ncc3c(N)c2F)cnc2c1NCCO2 [Compound 549b, (1r,3r)-3-(2-Cyanopropan-2-yl)cyclobutyl (8-amino-7-fluoro-6-(8-methyl-2,3-dihydro-1H-pyrido[2,3-b][1,4]oxazin-7-yl)isoquinolin-3-yl)carbamate]
- Ki (read-out: HPK1 Ki): < 0.013 nM

Compound: Cc1c(-c2cc3cc(NC(=O)O[C@H]4C[C@@H](N5CCOCC5)C4)ncc3c(N)c2F)cnc2c1NCCO2 [Compound 550b, (1s,3s)-3-Morpholinocyclobutyl (8-amino-7-fluoro-6-(8-methyl-2,3-dihydro-1H-pyrido[2,3-b][1,4]oxazin-7-yl)isoquinolin-3-yl)carbamate]
- Ki (HPK1 Ki): 0.054 nM

Compound: Cc1c(-c2cc3cc(NC(=O)OC4CC(O)(C5CC5)C4)ncc3c(N)c2F)cnc2c1NCCO2 (stereo not drawn) [Compound 551a, (3-Cyclopropyl-3-hydroxy-cyclobutyl) N-[8-amino-7-fluoro-6-(8-methyl-2,3-dihydro-1H-pyrido[2,3-b][1,4]oxazin-7-yl)-3-isoquinolyl]carbamate]
- Ki (read-out: HPK1 Ki): < 0.013 nM

Compound: Cc1c(-c2cc3cc(NC(=O)OC4CN(S(C)(=O)=O)C4)ncc3c(N)c2F)cnc2c1NCCO2 [Compound 552, 1-(Methylsulfonyl)azetidin-3-yl (8-amino-7-fluoro-6-(8-methyl-2,3-dihydro-1H-pyrido[2,3-b][1,4]oxazin-7-yl)isoquinolin-3-yl)carbamate]
- Ki (read-out: HPK1 Ki): 0.014 nM

Compound: Cc1c(-c2cc3cc(NC(=O)O[C@H]4C[C@@H](O)C4)ncc3c(N)c2F)cnc2c1NCCC2 [Compound 553a, (1s,3s)-3-hydroxycyclobutyl (8-amino-7-fluoro-6-(4-methyl-5,6,7,8-tetrahydro-1,5-naphthyridin-3-yl)isoquinolin-3-yl)carbamate]
- Ki (read-out: HPK1 Ki): < 0.013 nM

Compound: Cc1c(-c2cc3cc(NC(=O)O[C@]4(C)C[C@H](O)C4)ncc3c(N)c2F)cnc2c1NCCO2 [Compound 554a, (1s,3s)-3-Hydroxy-1-methylcyclobutyl (8-amino-7-fluoro-6-(8-methyl-2,3-dihydro-1H-pyrido[2,3-b][1,4]oxazin-7-yl)isoquinolin-3-yl)carbamate]
- Ki (read-out: HPK1 Ki): 0.253 nM

Compound: Cc1c(-c2cc(N)c3cnc(NC(=O)O[C@H]4C[C@@H](C#N)C4)cc3c2)cnc2c1NCCO2 [Compound 557a, (1s,3s)-3-Cyanocyclobutyl (8-amino-6-(8-methyl-2,3-dihydro-1H-pyrido[2,3-b][1,4]oxazin-7-yl)isoquinolin-3-yl)carbamate hydrochloride]
- Ki (read-out: HPK1 Ki): < 0.013 nM

Compound: Cc1c(-c2cc3cc(NC(=O)O[C@H]4CC[C@@H]4C)ncc3c(N)c2F)cnc2c1NCCO2 [Compound 559b, [(1S,2S)-2-methylcyclobutyl]N-[8-amino-7-fluoro-6-(8-methyl-2,3-dihydro-1H-pyrido[2,3-b][1,4]oxazin-7-yl)-3-isoquinolyl]carbamate]
- Ki (read-out: HPK1 Ki): 0.14 nM

Compound: Cc1c(-c2cc3cc(NC(=O)O[C@H]4CC[C@H]4C)ncc3c(N)c2F)cnc2c1NCCO2 [Compound 559d, [(1S,2R)-2-methylcyclobutyl]N-[8-amino-7-fluoro-6-(8-methyl-2,3-dihydro-1H-pyrido[2,3-b][1,4]oxazin-7-yl)-3-isoquinolyl]carbamate]
- Ki (read-out: HPK1 Ki): < 0.013 nM

Compound: Cc1c(-c2cc3cc(NC(=O)OC4CC(O)C4)ncc3c(N)c2F)cnc2c1NC[C@H](C)C2 (stereo partly drawn) [Compound 560b, (1s,3s)-3-Hydroxycyclobutyl (8-amino-6-((R)-4,7-dimethyl-5,6,7,8-tetrahydro-1,5-naphthyridin-3-yl)-7-fluoroisoquinolin-3-yl)carbamate]
- Ki (read-out: HPK1 Ki): 0.32 nM

Compound: Cc1c(-c2cc3cc(NC(=O)O[C@@H]4CCOC4)ncc3c(N)c2F)cnc2c1C(C#N)CCO2 (stereo partly drawn) [Compound 562a, (R)-Tetrahydrofuran-3-yl (8-amino-6-(4-cyano-5-methyl-3,4-dihydro-2H-pyrano[2,3-b]pyridin-6-yl)-7-fluoroisoquinolin-3-yl)carbamate]
- Ki (read-out: HPK1 Ki): 0.068 nM

Compound: Cc1c(-c2cc3cc(NC(=O)O[C@@H]4CO[C@H]5COC[C@H]54)ncc3c(N)c2F)cnc2c1NCCO2 [Compound 563a, (3S,3aR,6aR)-Hexahydrofuro[3,4-b]furan-3-yl (8-amino-7-fluoro-6-(8-methyl-2,3-dihydro-1H-pyrido[2,3-b][1,4]oxazin-7-yl)isoquinolin-3-yl)carbamate]
- Ki (HPK1 Ki): 0.219 nM

Compound: Cc1c(-c2cc3cc(NC(=O)O[C@@H]4CCN([C@H]5CCOC5)C[C@@H]4F)ncc3c(N)c2F)cnc2c1NCCO2 [Compound 569a, (3S,4R)-3-Fluoro-1-((S)-tetrahydrofuran-3-yl)piperidin-4-yl (8-amino-7-fluoro-6-(8-methyl-2,3-dihydro-1H-pyrido[2,3-b][1,4]oxazin-7-yl)isoquinolin-3-yl)carbamate]
- Ki (read-out: HPK1 Ki): 0.277 nM

Compound: Cc1c(-c2cc3cc(NC(=O)O[C@@H]4CCN([C@@H]5CCOC5)C[C@@H]4F)ncc3c(N)c2F)cnc2c1NCCO2 [Compound 569b, (3S,4R)-3-fluoro-1-((R)-tetrahydrofuran-3-yl)piperidin-4-yl (8-amino-7-fluoro-6-(8-methyl-2,3-dihydro-1H-pyrido[2,3-b][1,4]oxazin-7-yl)isoquinolin-3-yl)carbamate]
- Ki (read-out: HPK1 Ki): 0.254 nM

Compound: Cc1c(-c2cc3cc(NC(=O)O[C@H]4CCN([C@H]5CCOC5)C[C@H]4F)ncc3c(N)c2F)cnc2c1NCCO2 [Compound 569c, (3R,4S)-3-fluoro-1-((S)-tetrahydrofuran-3-yl)piperidin-4-yl (8-amino-7-fluoro-6-(8-methyl-2,3-dihydro-1H-pyrido[2,3-b][1,4]oxazin-7-yl)isoquinolin-3-yl)carbamate]
- Ki (read-out: HPK1 Ki): 0.029 nM

Compound: Cc1c(-c2cc3cc(NC(=O)O[C@H]4CCN([C@@H]5CCOC5)C[C@H]4F)ncc3c(N)c2F)cnc2c1NCCO2 [Compound 569d, (3R,4S)-3-fluoro-1-((R)-tetrahydrofuran-3-yl)piperidin-4-yl (8-amino-7-fluoro-6-(8-methyl-2,3-dihydro-1H-pyrido[2,3-b][1,4]oxazin-7-yl)isoquinolin-3-yl)carbamate]
- Ki (HPK1 Ki): 0.031 nM

Compound: Cc1c(-c2cc3cc(NC(=O)O[C@H]4C[C@H](CO)C4)ncc3c(N)c2F)cnc2c1NCCO2 [Compound 571a, (1r,3r)-3-(Hydroxymethyl)cyclobutyl (8-amino-7-fluoro-6-(8-methyl-2,3-dihydro-1H-pyrido[2,3-b][1,4]oxazin-7-yl)isoquinolin-3-yl)carbamate]
- Ki (read-out: HPK1 Ki): 0.014 nM

Compound: Cc1c(-c2cc3cc(NC(=O)O[C@H]4C[C@@H](CO)C4)ncc3c(N)c2F)cnc2c1NCCO2 [Compound 571b, (1s,3s)-3-(Hydroxymethyl)cyclobutyl (8-amino-7-fluoro-6-(8-methyl-2,3-dihydro-1H-pyrido[2,3-b][1,4]oxazin-7-yl)isoquinolin-3-yl)carbamate]
- Ki (read-out: HPK1 Ki): < 0.013 nM

Compound: Cc1c(-c2cc3cc(NC(=O)O[C@H]4C[C@@H](S(C)(=O)=O)C4)ncc3c(N)c2F)cnc2c1NCCO2 [Compound 572a, (1s,3s)-3-(Methylsulfonyl)cyclobutyl (8-amino-7-fluoro-6-(8-methyl-2,3-dihydro-1H-pyrido[2,3-b][1,4]oxazin-7-yl)isoquinolin-3-yl)carbamate]
- Ki (read-out: HPK1 Ki): < 0.013 nM

Compound: Cc1c(-c2cc3cc(NC(=O)O[C@H]4C[C@@H](C(C)(C)O)C4)ncc3c(N)c2F)cnc2c1NCCO2 [Compound 574b, (1s,3s)-3-(2-hydroxypropan-2-yl)cyclobutyl (8-amino-7-fluoro-6-(8-methyl-2,3-dihydro-1H-pyrido[2,3-b][1,4]oxazin-7-yl)isoquinolin-3-yl)carbamate]
- Ki (read-out: HPK1 Ki): < 0.013 nM

Compound: Cc1c(-c2cc3cc(NC(=O)OC4C5COCC4CN(C4COC4)C5)ncc3c(N)c2F)cnc2c1NCCO2 [Compound 575a, (1R,5S,9s)-7-(Oxetan-3-yl)-3-oxa-7-azabicyclo[3.3.1]nonan-9-yl (8-amino-7-fluoro-6-(8-methyl-2,3-dihydro-1H-pyrido[2,3-b][1,4]oxazin-7-yl)isoquinolin-3-yl)carbamate]
- Ki (read-out: HPK1 Ki): < 0.013 nM

Compound: CO[C@H]1C[C@H](OC(=O)Nc2cc3cc(-c4cnc5c(c4C)NCCO5)c(F)c(N)c3cn2)C1 [Compound 576a, (1r, 3r)-3-Methoxycyclobutyl (8-amino-7-fluoro-6-(8-methyl-2,3-dihydro-1H-pyrido[2,3-b][1,4]oxazin-7-yl)isoquinolin-3-yl)carbamate]
- Ki (read-out: HPK1 Ki): < 0.013 nM

Compound: Cc1c(-c2cc3cc(NC(=O)O[C@H]4C[C@@H](C(F)F)C4)ncc3c(N)c2F)cnc2c1NCCO2 [Compound 577a, (1s,3s)-3-(difluoromethyl)cyclobutyl (8-amino-7-fluoro-6-(8-methyl-2,3-dihydro-1H-pyrido[2,3-b][1,4]oxazin-7-yl)isoquinolin-3-yl)carbamate]
- Ki (read-out: HPK1 Ki): 0.015 nM

Compound: Cc1c(-c2cc3cc(NC(=O)O[C@H]4C[C@H](C(F)F)C4)ncc3c(N)c2F)cnc2c1NCCO2 [Compound 577b, (1r,3r)-3-(difluoromethyl)cyclobutyl (8-amino-7-fluoro-6-(8-methyl-2,3-dihydro-1H-pyrido[2,3-b][1,4]oxazin-7-yl)isoquinolin-3-yl)carbamate]
- Ki (read-out: HPK1 Ki): < 0.013 nM

Compound: Cc1c(-c2cc3cc(NC(=O)OC4CCS(=O)(=O)CC4)ncc3c(N)c2F)cnc2c1NCCC2 [Compound 579, 1,1-Dioxidotetrahydro-2H-thiopyran-4-yl (8-amino-7-fluoro-6-(4-methyl-5,6,7,8-tetrahydro-1,5-naphthyridin-3-yl)isoquinolin-3-yl)carbamate]
- Ki (read-out: HPK1 Ki): 0.85 nM
